Positions of bridges follow the written chain, without caps; N, C: chain ends. Non-standard residues stand in square brackets, D forms with d. Residues, ends and D or L forms follow the SMILES beside them. ξ: configuration not given here. *: point of attachment. Phe(4-CONH2) = NC(=O)c1ccc(C[C@H](N)C(=O)O)cc1; Ala(4-thiazolyl) = N[C@@H](Cc1cscn1)C(=O)O; Bip = N[C@@H](Cc1ccc(-c2ccccc2)cc1)C(=O)O; Phe(3-CN) = N#Cc1cccc(C[C@H](N)C(=O)O)c1; Phe(4-NH2) = Nc1ccc(C[C@H](N)C(=O)O)cc1; Phe(3-Me) = Cc1cccc(C[C@H](N)C(=O)O)c1; Val(3-OH) = CC(C)(O)[C@H](N)C(=O)O; NMeF = CN[C@@H](Cc1ccccc1)C(=O)O; 4Pal = N[C@@H](Cc1ccncc1)C(=O)O; Cha = N[C@@H](CC1CCCCC1)C(=O)O; dDab = NCC[C@@H](N)C(=O)O; Carboxymethyl = O=C(O)C*; NMeA = CN[C@@H](C)C(=O)O; Orn = NCCC[C@H](N)C(=O)O; ξF = NC(Cc1ccccc1)C(=O)O; Dab = NCC[C@H](N)C(=O)O; Dap = NC[C@H](N)C(=O)O; ξV = CC(C)C(N)C(=O)O; Sar = CNCC(=O)O
molecular target: T1, human PD-1 (Jurkat-PD-1 cells) / PE-labeled human PD-L1-Ig (Homo sapiens, UniProt Q15116); assay: Jurkat-PD-1 Cell Binding High-Content Screening Assay (CBA); Jurkat hPD1-PDL1 assay; details: Jurkat cell line over-expressing human PD-1; PE-labeled PD-L1-Ig 20 nM final; compound incubated 2 hours at 37° C.; read-out: Jurkat HPD1-PDL1 IC50
T1 construct: expressed in transfected cells; host or cells: Jurkat cell line over-expressing human PD-1
T1 sequence (Q15116 25-288): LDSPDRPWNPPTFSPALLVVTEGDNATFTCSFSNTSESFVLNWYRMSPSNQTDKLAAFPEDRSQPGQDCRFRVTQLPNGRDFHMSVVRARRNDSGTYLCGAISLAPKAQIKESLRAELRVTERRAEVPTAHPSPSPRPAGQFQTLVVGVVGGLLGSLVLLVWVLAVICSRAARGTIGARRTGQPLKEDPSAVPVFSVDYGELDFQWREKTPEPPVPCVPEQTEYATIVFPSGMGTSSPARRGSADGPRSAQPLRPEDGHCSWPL
Procedure, shortened: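 Jurkat-hPD-1 cells; cpd 2 h, 37° C; then PE-PD-L1-Ig 20 nM final in DMEM/10% FCS; high-content imaging read-out.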

Going from `CC(C)C[C@@H]1NC(=O)[C@H](Cc2c[nH]c3ccccc23)NC(=O)[C@H](CC(=O)O)NC(=O)[C@H](Cc2ccc(O)cc2)NC(=O)C(Cc2ccccc2)NC(=O)CSC[C@@H](C(=O)NCC(N)=O)NC(=O)[C@@H](CO)NC(=O)[C@H](C(C)C)NC(=O)[C@H](CC(C)C)NC(=O)[C@H](CC(N)=O)NC(=O)CN(C)C(=O)[C@H](C)N(C)C(=O)[C@H](C(C)C)NC(=O)[C@H](Cc2ccc(-c3ccccc3)cc2)NC1=O` (stereo partly drawn) [Example 1043] ({CH2CO}-[ξF]YDWL[Bip]V[NMeA][Sar]NLV[dS]CG-NH2; thioether N-14) to `CC(C)C[C@@H]1NC(=O)[C@H](Cc2c[nH]c3ccccc23)NC(=O)[C@H](CC(=O)O)NC(=O)[C@H](Cc2ccc(O)cc2)NC(=O)[C@H](Cc2ccccc2)NC(=O)CSC[C@@H](C(=O)NCC(N)=O)NC(=O)[C@H](C)NC(=O)[C@H](C(C)C)NC(=O)[C@H](CC(C)C)NC(=O)[C@H](CC(N)=O)NC(=O)CN(C)C(=O)[C@H](C)N(C)C(=O)[C@H](C(C)C)NC(=O)[C@H](Cc2ccc(-c3ccccc3)cc2)NC1=O` [Example 1110] ({CH2CO}-FYDWL[Bip]V[NMeA][Sar]NLVACG-NH2; thioether N-14), the IC50 rises from 0.08 µM to 0.35 µM (4.4-fold).

`CC(C)C[C@@H]1NC(=O)[C@H](Cc2c[nH]c3ccccc23)NC(=O)[C@H](CC(=O)O)NC(=O)[C@H](Cc2ccc(O)cc2)NC(=O)[C@H](C(C)C)NC(=O)CSC[C@@H](C(=O)NCC(N)=O)NC(=O)[C@H](CO)NC(=O)[C@H](C(C)C)NC(=O)[C@H](CC(C)C)NC(=O)[C@H](CC(N)=O)NC(=O)CN(C)C(=O)[C@H](C)N(C)C(=O)[C@H](C(C)C)NC(=O)[C@H](Cc2ccc(-c3ccccc3)cc2)NC1=O` [Example 1154] ({CH2CO}-VYDWL[Bip]V[NMeA][Sar]NLVSCG-NH2; thioether N-14) and `CC(C)C[C@@H]1NC(=O)[C@H](Cc2c[nH]c3ccccc23)NC(=O)[C@H](CC(=O)O)NC(=O)[C@H](Cc2ccc(O)cc2)NC(=O)[C@H](Cc2cscn2)NC(=O)CSC[C@@H](C(=O)NCC(N)=O)NC(=O)[C@H](CO)NC(=O)[C@H](C(C)C)NC(=O)[C@H](CC(C)C)NC(=O)[C@H](CC(N)=O)NC(=O)CN(C)C(=O)[C@H](C)N(C)C(=O)[C@H](C(C)C)NC(=O)[C@H](Cc2ccc(-c3ccccc3)cc2)NC1=O` [Example 1132] ({CH2CO}-[Ala(4-thiazolyl)]YDWL[Bip]V[NMeA][Sar]NLVSCG-NH2; thioether N-14) are within 1.5-fold of each other in IC50: 0.79 µM for the first, 0.53 µM for the second.

Going from `CC(C)C[C@@H]1NC(=O)[C@H](Cc2c[nH]c3ccccc23)NC(=O)[C@H](CC(=O)O)NC(=O)[C@H](Cc2ccc(N)cc2)NC(=O)[C@H](Cc2ccccc2)NC(=O)CSC[C@@H](C(=O)N[C@@H](C)C(N)=O)NC(=O)[C@H](CO)NC(=O)[C@H](C(C)C)NC(=O)[C@H](CC(C)C)NC(=O)[C@H](CC(N)=O)NC(=O)CN(C)C(=O)[C@H](C)N(C)C(=O)[C@H](C(C)C)NC(=O)[C@H](Cc2ccc(-c3ccccc3)cc2)NC1=O` [Example 1076] ({CH2CO}-F[Phe(4-NH2)]DWL[Bip]V[NMeA][Sar]NLVSCA-NH2; thioether N-14) to `CC(C)C[C@@H]1NC(=O)[C@H](Cc2c[nH]c3ccccc23)NC(=O)[C@H](CC(=O)O)NC(=O)[C@H](Cc2ccc(O)cc2)NC(=O)[C@H](Cc2c[nH]c3ccccc23)NC(=O)CSC[C@@H](C(=O)NCC(N)=O)NC(=O)[C@H](CO)NC(=O)[C@H](C(C)C)NC(=O)[C@H](CC(C)C)NC(=O)[C@H](CC(N)=O)NC(=O)CN(C)C(=O)[C@H](C)N(C)C(=O)[C@H](C(C)C)NC(=O)[C@H](Cc2ccc(-c3ccccc3)cc2)NC1=O` [Example 1135] ({CH2CO}-WYDWL[Bip]V[NMeA][Sar]NLVSCG-NH2; thioether N-14), the IC50 rises from 0.21 µM to 0.55 µM (2.6-fold). The first is the more potent here.

Compared with `CC(C)C[C@@H]1NC(=O)[C@H](Cc2c[nH]c3ccccc23)NC(=O)[C@H](CC(=O)O)NC(=O)[C@H](Cc2ccc(O)cc2)NC(=O)[C@H](Cc2ccccc2)NC(=O)CSC[C@@H](C(=O)N[C@@H](C)C(N)=O)NC(=O)[C@H](CO)NC(=O)[C@H](C(C)C)NC(=O)[C@H](CC(C)C)NC(=O)[C@H](CC(N)=O)NC(=O)[C@H]2CCCN2C(=O)[C@@H](CCN)NC(=O)[C@H](C(C)C)NC(=O)[C@H](Cc2ccc(-c3ccccc3)cc2)NC1=O` [Example 1195] ({CH2CO}-FYDWL[Bip]V[dDab][dP]NLVSCA-NH2; thioether N-14), `CC(C)C[C@@H]1NC(=O)[C@H](Cc2c[nH]c3ccccc23)NC(=O)[C@H](CC(=O)O)NC(=O)[C@H](Cc2ccc(O)cc2)NC(=O)[C@H](CN)NC(=O)CSC[C@@H](C(=O)N[C@@H](C)C(N)=O)NC(=O)[C@H](CO)NC(=O)[C@H](C(C)C)NC(=O)[C@H](CC(C)C)NC(=O)[C@H](CC(N)=O)NC(=O)[C@H]2CCCN2C(=O)[C@H](C)N(C)C(=O)[C@H](C(C)C)NC(=O)[C@H](Cc2ccc(-c3ccccc3)cc2)NC1=O` [Example 1394] ({CH2CO}-[Dap]YDWL[Bip]V[NMeA][dP]NLVSCA-NH2; thioether N-14) is 4.1-fold lower in IC50: 0.37 µM for the first, 0.09 µM for the second.

`CC(C)C1NC(=O)[C@H](Cc2c[nH]c3ccccc23)NC(=O)[C@H](CC(=O)O)NC(=O)[C@H](Cc2ccncc2)NC(=O)[C@H](Cc2ccc(OCC(=O)O)cc2)NC(=O)CSC[C@@H](C(=O)N[C@@H](C)C(N)=O)NC(=O)[C@H]([C@@H](C)O)NC(=O)[C@H](C(C)C)NC(=O)[C@H](CC2CCCCC2)NC(=O)[C@H](CCN)NC(=O)[C@H](Cc2ccccc2)N(C)C(=O)[C@H](CCCN)NC(=O)[C@H](CCC(=O)O)NC(=O)[C@H](Cc2ccc(-c3ccccc3)cc2)NC1=O` (stereo partly drawn) [Example 1440] ({CH2CO}-Y(Carboxymethyl)[4Pal]DW[ξV][Bip]E[Orn][NMeF][Dab][Cha]VTCA-NH2; thioether N-14) and `CC(C)C[C@@H]1NC(=O)[C@H](CCN)NC(=O)[C@H](Cc2ccccc2)N(C)C(=O)[C@H](C)N(C)C(=O)[C@H](CCC(=O)O)NC(=O)[C@H](Cc2ccc(-c3ccccc3)cc2)NC(=O)[C@H](C(C)C)NC(=O)[C@H](Cc2c[nH]c3ccccc23)NC(=O)[C@H](CC(=O)O)NC(=O)[C@H](Cc2ccc(O)cc2)NC(=O)[C@H](Cc2ccccc2)NC(=O)CSC[C@@H](C(=O)N[C@@H](C)C(N)=O)NC(=O)[C@H]([C@@H](C)O)NC(=O)[C@H](C(C)C)NC1=O` [Example 1342] ({CH2CO}-FYDWV[Bip]E[NMeA][NMeF][Dab]LVTCA-NH2; thioether N-14) are the same in IC50: 0.07 µM for the first, 0.07 µM for the second.

Compared with `CC(C)C[C@@H]1NC(=O)[C@H](CCCNC(=N)N)NC(=O)[C@H](Cc2ccccc2)N(C)C(=O)[C@H](CCCNC(=N)N)NC(=O)[C@H](CCCNC(=N)N)NC(=O)[C@H](Cc2ccc(-c3ccccc3)cc2)NC(=O)[C@H](C(C)C)NC(=O)[C@H](Cc2c[nH]c3ccccc23)NC(=O)[C@H](CC(=O)O)NC(=O)[C@H](Cc2ccc(O)cc2)NC(=O)[C@H](Cc2cnc[nH]2)NC(=O)CSC[C@@H](C(=O)NCC(N)=O)NC(=O)[C@H](CO)NC(=O)[C@H](C(C)C)NC1=O` [Example 1315] ({CH2CO}-HYDWV[Bip]RR[NMeF]RLVSCG-NH2; thioether N-14), `CC(C)C[C@@H]1NC(=O)[C@H](CCCNC(=N)N)NC(=O)[C@H](Cc2ccccc2)N(C)C(=O)[C@H](C)N(C)C(=O)[C@H](CCCNC(=N)N)NC(=O)[C@H](Cc2ccc(-c3ccccc3)cc2)NC(=O)[C@H](C(C)C)NC(=O)[C@H](Cc2c[nH]c3ccccc23)NC(=O)[C@H](CC(=O)O)NC(=O)[C@H](Cc2ccc(O)cc2)NC(=O)[C@H](Cc2ccc(C(N)=O)cc2)NC(=O)CSC[C@@H](C(=O)NCC(N)=O)NC(=O)[C@H](CO)NC(=O)[C@H](C(C)C)NC1=O` [Example 1257] ({CH2CO}-[Phe(4-CONH2)]YDWV[Bip]R[NMeA][NMeF]RLVSCG-NH2; thioether N-14) is 6.6-fold lower in IC50: 0.53 µM for the first, 0.08 µM for the second. The second is the more potent here.

First: CC(C)C[C@@H]1NC(=O)[C@H](Cc2c[nH]c3ccccc23)NC(=O)[C@H](CC(=O)O)NC(=O)[C@H](Cc2ccc(O)cc2)NC(=O)[C@H](Cc2ccccc2)NC(=O)CSC[C@@H](C(=O)NCC(N)=O)NC(=O)[C@H](CO)NC(=O)[C@H](C(C)C)NC(=O)[C@H](CC(C)C)NC(=O)[C@H](CCCNC(=N)N)NC(=O)[C@H](Cc2ccccc2)N(C)C(=O)[C@H](C)N(C)C(=O)[C@H](CCCNC(=N)N)NC(=O)[C@H](Cc2ccc(-c3ccccc3)cc2)NC1=O [Example 1327] ({CH2CO}-FYDWL[Bip]R[NMeA][NMeF]RLVSCG-NH2; thioether N-14)
Second: CC(C)C[C@@H]1NC(=O)[C@H](CCCNC(=N)N)NC(=O)[C@H](Cc2ccccc2)N(C)C(=O)[C@H](C)N(C)C(=O)[C@H](CCCN)NC(=O)[C@H](Cc2ccc(-c3ccccc3)cc2)NC(=O)[C@H](C(C)C)NC(=O)[C@H](Cc2c[nH]c3ccccc23)NC(=O)[C@H](CC(=O)O)NC(=O)[C@H](Cc2ccc(O)cc2)NC(=O)[C@H](Cc2ccccc2)NC(=O)CSC[C@@H](C(=O)N[C@@H](C)C(N)=O)NC(=O)[C@H]([C@@H](C)O)NC(=O)[C@H](C(C)C)NC1=O [Example 1346] ({CH2CO}-FYDWV[Bip][Orn][NMeA][NMeF]RLVTCA-NH2; thioether N-14)
The IC50 of the first is 2.6-fold lower: 0.12 µM for the first, 0.31 µM for the second. The first is the more potent here.

`Cc1cccc(C[C@@H]2NC(=O)[C@H](CC(=O)O)NC(=O)[C@H](Cc3cccc(C#N)c3)NC(=O)[C@H](Cc3ccncc3)NC(=O)CSC[C@@H](C(=O)N[C@@H](CCN)C(N)=O)NC(=O)[C@H](CO)NC(=O)[C@H](C(C)(C)O)NC(=O)[C@H](CC3CCCCC3)NC(=O)[C@H](CCN)NC(=O)[C@H]3CCCN3C(=O)[C@H](C)N(C)C(=O)[C@H](Cc3ccc(OCC(=O)O)cc3)NC(=O)[C@H](Cc3ccc(-c4ccccc4)cc3)NC(=O)[C@H](Cc3ccc(OCC(=O)O)cc3)NC2=O)c1` [Example 1182] ({CH2CO}-[4Pal][Phe(3-CN)]D[Phe(3-Me)]Y(Carboxymethyl)[Bip]Y(Carboxymethyl)[NMeA][dP][Dab][Cha][Val(3-OH)]SC[Dab]-NH2; thioether N-14) showed an IC50 of 0.24 µM.
